Where “and” joins values, the source holds several entries; their conditions need not be identical. Equal entries are not always repeated. Entries after “also recorded” stand apart in the source; their conditions may differ. Where two headings read alike, the source gives them in different places.
Legend:
C57 BL/6J male mice = experiment: Forced swimming experiment in mice; format: in vivo
Excerpt: 1) Forced Swimming Experiment: Also Known as Despair Experiment, an Experiment Usually Used to Test Depression-Like Behavior of Mice
• Animal: C57 BL/6J male mice (18-20 g)
Intraperitoneal injection (i.p)

[1] = test system: pyramidal neurons in prefrontal PrL brain area; experiment: Brain slice electrophysiology, sEPSC of mPFC pyramidal neurons; format: cell-based, mice; settings: 10 nM, 10 μM, 150 μM; for sEPSC distribution frequency: concentration-dependent, significant at 150 μM
Excerpt: 2) Brain Slice Electrophysiological Experiment: For Detecting Effect of Compound M2 on mPFC Excitatory Synaptic Transmission • Animal: neonatal mice C57 BL/6J (20-30 days). • Instrument: vibratome (Leica), brain slice electrophysiological system (Axon). • Brain slice electrophysiological experiment method • SEPSC experiment method: Neonatal C57 mice were anesthetized and then perfused with artificial cerebrospinal fluid (ACSF). After decapitation, brain tissue was taken quickly and sliced by vibratome, with a thickness of a brain slice being 300 μm. After the brain slices were incubated at 28 °C for 1 h, whole-cell recordings of mPFC pyramidal neurons were made using a voltage clamp (−70 mV) through a brain slice electrophysiological system. The baseline recording time was 6 min, and then a drug to be tested was added through a perfusion system (the drug was dissolved using ACSF), and the recording time after adding the drug was 6-10 min. Recorded data was analyzed using Minianalysis software, and effects of the drug to be tested on sEPSC frequency and amplitude of medial prefrontal pyramidal neurons in C57 mice were compared.
All data analysis was done using spss data processing software, and data was expressed by Mean±s.e.m. One-way ANOVA was used to analyze the effect of compound M2 and the effect of compound M2 under the action of dopamine receptor antagonists on sEPSC current: and paired t test was used to analyze sEPSC experimental results. * was marked when p<0.05.
During the experiment, 10 μM Bicuculine was added to the solution to block GABA receptor, so as to record sEPSC of pyramidal neurons. The experiment investigated effects of different concentrations of compound M2 on spontaneous excitatory postsynaptic […] (sEPSC) of pyramidal neurons in prefrontal PrL brain area, as shown in FIG. 2.

mTOR signaling pathway = experiment: Western blot of prefrontal proteins after single administration; format: in vivo, mice; settings: 30 mg/kg
Method: 3) Western Blot: For Detecting Effect of Compound M2 on a Change in mPFC Protein Content • Animals: C57 BL/6J male mice (18-20 g), divided into four groups, i.e. the control group, fluoxetine group, compound M2 (30 mg/kg) group, and esketamine group. • Primary antibodies for experimental use
0.5 h/24 h after administration of C57 mice, brain tissue was sampled from the prefrontal brain area. After tissue samples were lysed and homogenized, quantification of proteins was performed using the BCA method, and changes in protein content in the prefrontal brain area 0.5 h/24 h after intraperitoneal administration of compound M2 were detected by steps of SDS-PAGE gel preparation, sample loading and electrophoresis, membrane transfer, sealing, primary antibody incubation, secondary antibody incubation, protein detection (development and fixation), etc.

[2] = Pharmacokinetics and absolute bioavailability in rats (LC-MS/MS); format: in vivo; settings: rat; for MRT inf: read-out: MRT0-∞
Excerpt: A LC-MS/MS method for determination of compound I-5 and compound M2 in rat plasma was established through experiments to investigate the pharmacokinetic characteristics and absolute bioavailability of compounds in rats.
20 SPF-grade SD male rats (body weight 220±20 g), purchased from Beijing Vital River Laboratory Animal Technology Co., Ltd.
• Chromatographic column: waters BEH C18 1.7 μm; 2.1×100 mm Column • Internal standard: D-I-5 (deuterated compound I-5, with the following structural formula)
20 SD rats were randomly divided into 4 groups, with 5 rats in each group. […]
50 μL plasma was taken, 50 μL D-I-5 (20 ng/mL dissolved in acetonitrile) was added, the mixture was whirled for 30 s, then 100 μL acetonitrile was added; the mixture was fully whirled for 2 min, and was centrifuged at 4° C. at 12000 r/min for 3 min, 50 μL supernatant was taken, 50 μL aqueous solution was added for dilution, followed by whirling for Imin, and 4 μL sample was injected.
The mean plasma concentration-time curves of rats after oral intragastric administration and intravenous administration were respectively shown in FIGS. 8 and 9. Data were processed using DAS 3.0 pharmacokinetic software (Chinese Professional Committee of Mathematical Pharmacology, Shanghai, China), and statistical moment parameters of the non-compartmental model were calculated, Cmax and Tmax being measured values.

[3] = male, SD, plasma, po, intragastric administration 12.5 mg/kg, n = 5
[4] = male, SD, plasma, intravenous administration 2.5 mg/kg, n = 5
[5] = male, Sprague-Dawley (SD), plasma, po, intragastric administration 12.5 mg/kg, n = 5
[6] = male, Sprague-Dawley (SD), plasma, intravenous administration 2.5 mg/kg, n = 5

## NC(=O)/C=C/c1cc2c(c(C(F)(F)F)c1)OCO2 [Compound M2]
C57 BL/6J male mice; 24 h after a single i.p. administration, fluoxetine 10 mg/kg, esketamine 10 mg/kg, M2 3-30 mg/kg
  antidepressant-like effect: had antidepressant-like effect
C57 BL/6J male mice; 24 h after single i.p. administration, dosage effect, significant at 30 mg/kg, 30 mg/kg
  immobility time of mice in forced swimming: reduce the immobility time; also recorded: significantly reduced
[1]
  sEPSC distribution amplitude: did not have significant effect
  sEPSC distribution frequency: increased
[1]; listed as compound M2
  sEPSC distribution frequency: significantly enhance
  sEPSC distribution amplitude: does not have a significant effect
mTOR signaling pathway; 0.5 h after administration
  medial prefrontal p-TrkB content: increased
  medial prefrontal p-mTOR content: increased
  total content (mTOR, TrkB): remaining unchanged
mTOR signaling pathway; 24 h after single administration
  content of medial prefrontal synaptogenesis-related protein PSD95: significantly increased
[2]; male, SD, plasma, oral, absolute bioavailability, intragastric 12.5 mg/kg vs intravenous 2.5 mg/kg, read-out: F (bioavailability, %)
  bioavailability: 40.8%
[2]; [3]
  AUC(0-t): 1080 ± 373 ng·h/mL
  Tmax: 21 min
  half-life: 61.8 ± 20.4 min
[2]; [4]
  C0: 1640 ± 319 ng/mL
  half-life: 14.4 ± 1.8 min
[2]; male, SD, plasma, iv, 2.5 mg/kg, single intravenous 2.5 mg/kg, 0.08 h, read-out: Plasma concentration, Mean
  concentration at 0.08 h: 1210 ng/mL
[2]; male, SD, plasma, iv, 2.5 mg/kg, single intravenous 2.5 mg/kg, 0.08 h, read-out: Plasma concentration, individual rats
  concentration at 0.08 h: 1090 ng/mL
[2]; male, SD, plasma, iv, 2.5 mg/kg, single intravenous 2.5 mg/kg, 0.25 h, read-out: Plasma concentration, Mean
  concentration at 0.25 h: 639 ng/mL
[2]; male, SD, plasma, iv, 2.5 mg/kg, single intravenous 2.5 mg/kg, 0.25 h, read-out: Plasma concentration, individual rats
  concentration at 0.25 h: 575 ng/mL
[2]; male, SD, plasma, iv, 2.5 mg/kg, single intravenous 2.5 mg/kg, 0.50 h
  concentration at 0.5 h: 315 ng/mL
[2]; male, SD, plasma, iv, 2.5 mg/kg, single intravenous 2.5 mg/kg, 1 h, read-out: Plasma concentration, Mean
  concentration at 1 h: 79 ng/mL
[2]; male, SD, plasma, iv, 2.5 mg/kg, single intravenous 2.5 mg/kg, 2 h
  concentration at 2 h: 5.46 ng/mL
[2]; male, SD, plasma, iv, 2.5 mg/kg, single intravenous 2.5 mg/kg, 3 h
  concentration at 3 h: 3.21 ng/mL
[2]; male, SD, plasma, oral, 12.5 mg/kg, single intragastric 12.5 mg/kg, 0.08 h, read-out: Plasma concentration, Mean
  concentration at 0.08 h: 191 ng/mL
[2]; male, SD, plasma, oral, 12.5 mg/kg, single intragastric 12.5 mg/kg, 0.25 h, read-out: Plasma concentration, Mean
  concentration at 0.25 h: 398 ng/mL
[2]; male, SD, plasma, oral, 12.5 mg/kg, single intragastric 12.5 mg/kg, 0.50 h
  concentration at 0.5 h: 387 ng/mL
[2]; male, SD, plasma, oral, 12.5 mg/kg, single intragastric 12.5 mg/kg, 1 h, read-out: Plasma concentration, Mean
  concentration at 1 h: 211 ng/mL
[2]; male, SD, plasma, oral, 12.5 mg/kg, single intragastric 12.5 mg/kg, 1 h, read-out: Plasma concentration, individual rats
  concentration at 1 h: 145 ng/mL
[2]; male, SD, plasma, oral, 12.5 mg/kg, single intragastric 12.5 mg/kg, 2 h
  concentration at 2 h: 132 ng/mL
[2]; male, SD, plasma, oral, 12.5 mg/kg, single intragastric 12.5 mg/kg, 3 h
  concentration at 3 h: 134 ng/mL
[2]; male, SD, plasma, oral, 12.5 mg/kg, single intragastric 12.5 mg/kg, 4 h, read-out: Plasma concentration, Mean
  concentration at 4 h: 164 ng/mL
[2]; male, SD, plasma, oral, 12.5 mg/kg, single intragastric 12.5 mg/kg, 6 h
  concentration at 6 h: 86.7 ng/mL
[2]; male, SD, plasma, oral, 12.5 mg/kg, single intragastric 12.5 mg/kg, 8 h, read-out: Plasma concentration, Mean
  concentration at 8 h: 2.07 ng/mL
[2]; male, SD, plasma, oral, 12.5 mg/kg, single intragastric 12.5 mg/kg, 8 h, read-out: Plasma concentration, individual rats
  concentration at 8 h: 5.38 ng/mL
[2]; male, SD, plasma, po, 12.5 mg/kg, intragastric administration 12.5 mg/kg, n = 5, read-out: Cmax
  Cmax: 425 ± 137 ng/mL
[2]; [5]
  AUC(0-inf): 1120 ± 367 ng·h/mL
  AUC(0-t): 1080 ± 373 ng·h/mL
  MRT inf: 151 ± 36.6 min
[2]; [6]
  AUC(0-inf): 532 ± 127 ng·h/mL
  AUC(0-t): 529 ± 130 ng·h/mL
  MRT inf: 18.6 ± 3.6 min
[2]; intragastric administration 12.5 mg/kg, n = 5, 12.5 mg/kg
  Cmax: 425.47 ± 136.97 ng/mL
[2]; single intragastric 12.5 mg/kg, 0.08 h
  Plasma concentration, individual rats: 78.15 ng/mL and 127.05 ng/mL and 78.40 ng/mL and 240.77 ng/mL and 433.00 ng/mL
[2]; single intragastric 12.5 mg/kg, 0.25 h
  Plasma concentration, individual rats: 213.75 ng/mL and 487.46 ng/mL and 212.80 ng/mL and 494.43 ng/mL and 582.67 ng/mL
[2]; single intragastric 12.5 mg/kg, 0.50 h
  Plasma concentration, individual rats: 270.87 ng/mL and 411.67 ng/mL and 291.90 ng/mL and 416.38 ng/mL and 542.56 ng/mL
[2]; single intragastric 12.5 mg/kg, 1 h
  Plasma concentration, individual rats: 184.82 ng/mL and 165.92 ng/mL and 270.26 ng/mL and 288.12 ng/mL
[2]; single intragastric 12.5 mg/kg, 2 h
  Plasma concentration, individual rats: 90.66 ng/mL and 71.40 ng/mL and 131.47 ng/mL and 231.27 ng/mL and 133.28 ng/mL
[2]; single intragastric 12.5 mg/kg, 3 h
  Plasma concentration, individual rats: 175.71 ng/mL and 60.26 ng/mL and 194.74 ng/mL and 114.91 ng/mL and 122.55 ng/mL
[2]; single intragastric 12.5 mg/kg, 4 h
  Plasma concentration, individual rats: 268.66 ng/mL and 107.99 ng/mL and 188.58 ng/mL and 66.64 ng/mL and 188.12 ng/mL
[2]; single intragastric 12.5 mg/kg, 6 h
  Plasma concentration, individual rats: 57.55 ng/mL and 48.74 ng/mL and 11.84 ng/mL and 15.99 ng/mL and 299.46 ng/mL
[2]; single intragastric 12.5 mg/kg, 8 h
  Plasma concentration, individual rats: BLOQ (3×) and 3.64 ng/mL
[2]; single intravenous 2.5 mg/kg, 0.08 h, 2.5 mg/kg
  Plasma concentration, individual rats: 1221.94 ng/mL and 1589.64 ng/mL and 991.98 ng/mL and 1170.61 ng/mL
[2]; single intravenous 2.5 mg/kg, 0.25 h, 2.5 mg/kg
  Plasma concentration, individual rats: 742.62 ng/mL and 807.81 ng/mL and 497.57 ng/mL and 574.42 ng/mL
[2]; single intravenous 2.5 mg/kg, 0.50 h, 2.5 mg/kg
  Plasma concentration, individual rats: 281.81 ng/mL and 435.1 ng/mL and 406.94 ng/mL and 201.98 ng/mL and 248.89 ng/mL
[2]; single intravenous 2.5 mg/kg, 1 h, 2.5 mg/kg
  Plasma concentration, individual rats: 74.30 ng/mL and 130.96 ng/mL and 92.59 ng/mL and 39.74 ng/mL and 57.32 ng/mL
[2]; single intravenous 2.5 mg/kg, 2 h, 2.5 mg/kg
  Plasma concentration, individual rats: 4.62 ng/mL and 12.27 ng/mL and 2.23 ng/mL and BLOQ and 2.72 ng/mL
[2]; single intravenous 2.5 mg/kg, 3 h, 2.5 mg/kg
  Plasma concentration, individual rats: 2.035 ng/mL and 4.403 ng/mL and BLOQ (3×)
[2]; single intravenous 2.5 mg/kg, 4 h
  Plasma concentration, individual rats: BLOQ
[2]; single intravenous 2.5 mg/kg, 6 h
  Plasma concentration, individual rats: BLOQ
[2]; single intravenous 2.5 mg/kg, 8 h
  Plasma concentration, individual rats: BLOQ
